Data set [1] can be described thus: Critical micelle concentration from surface tension data in aqueous 7% w/w gelatin solution. Conditions: aqueous solution containing 7% wt/wt deionised Type IV bone gelatin. The data set is classed as physicochemical. As for the experimental part:
(§1) A number of surfactants were tested for their ease of dissolution in water. Furthermore, the critical micelle concentrations (CMCs) of the surfactants were determined in aqueous solution containing 7% weight/weight deionised Type IV bone gelatin. The CMCs were determined from surface tension data by estimating the break point in the plot of surface tension against log concentration (see M. J. Rosen, Surfactants and Interfacial Phenomena, 2nd Edition, Wiley (1989), 110).

The nature of data set [2]: Ease of dissolution of surfactant in water. The data set is classed as physicochemical. The method, then: as §1

Regarding “CxF2x+1(CH2)y—(CH2CH2O) z—OH [Zonyl FSN]”, the “CMC in molar terms (M) moles kg^−1” value in data set [1] was 0.0003 M. Also, the “Solubility in Water” value in data set [2] is “Requires relatively long stirring”.
On to “Fluoroalkylthiosuccinic acid, Polyethylene glycol diester (II, R=C6F13CH2CH2,p=7)”, for which the “CMC in molar terms (M) moles kg^−1” value in data set [1] came to 6e-05 M. In addition, the “Solubility in Water” value in data set [2] is “Dissolves easily with gentle”.
